Experimental data published in patent US9885704B2, “Reagents and methods for cancer treatment and prevention” (priority 2006, dated 2018).

Experiments:
[1] = system: NF-κB promoter (THP-1 Clone A9); test: NF-κB promoter luciferase reporter, THP-1 Clone A9; type: cell-based, human; conditions: 50,000 reporter cells, 18 hours; FIG. 10
Source text: A stably transfected DNA construct encoding a NF-κB promoter driving firefly luciferase expression was integrated into: i) human pre-monocytic cell line THP-1; and ii) human premonocytic cell line MonoMac-6. Briefly, DNA encoding a concatemerized NF-κB response element upstream of the firefly luciferase gene [Ting et al., “RIP mediates tumor necrosis factor receptor 1 activation of NF-kappaB but not Fas/APO-1-initiated apoptosis” EMBO J. November 15; 15(22):6189-96(1996)] was subcloned into the pEAK8 vector backbone (Edge Biosystems, Gaithersburg Md.) by standard molecular biology techniques. Electroporations were performed using 10 μg of DNA and 700,000 THP-1 or MonoMac6 cells using a Biorad Gene Pulser II electroporator (Biorad, Hercules Calif.), 0.4 cm electrocuvettes, and 200 V, 950 μF. […] Luciferase expression was quantified using a Top Count NXT luminometer (Perkin Elmer, Wellesley Mass.). […]
The THP-1-derived clone A9 recognition of the TLR ligands Pam-3-Cys (signaling through TLR2) and bacterial flagellin (signaling through TLR5), but not bacterial lipopolysaccharide (signaling through TLR4) was determined by monitoring NF-κB activity in 96-well white plate automated assays during TG incubation. […]

[2] = system: NF-κB promoter (MonoMac-6 Clone C5); test: NF-κB promoter luciferase reporter, MonoMac-6 Clone C5; type: cell-based, human; conditions: FIG. 11
Source text: A stably transfected DNA construct encoding a NF-κB promoter driving firefly luciferase expression was integrated into: i) human pre-monocytic cell line THP-1; and ii) human premonocytic cell line MonoMac-6. Briefly, DNA encoding a concatemerized NF-κB response element upstream of the firefly luciferase gene [Ting et al., “RIP mediates tumor necrosis factor receptor 1 activation of NF-kappaB but not Fas/APO-1-initiated apoptosis” EMBO J. November 15; 15(22):6189-96(1996)] was subcloned into the pEAK8 vector backbone (Edge Biosystems, Gaithersburg Md.) by standard molecular biology techniques. Electroporations were performed using 10 μg of DNA and 700,000 THP-1 or MonoMac6 cells using a Biorad Gene Pulser II electroporator (Biorad, Hercules Calif.), 0.4 cm electrocuvettes, and 200 V, 950 μF. Following electroporation, cells were allowed to recover for two days prior to selection with 300 ng/ml puromycin aminonucleoside (Sigma-Aldrich) for the generation of stably transfected clones. Luciferase expression was quantified using a Top Count NXT luminometer (Perkin Elmer, Wellesley Mass.). Briefly, 50,000 reporter cells were incubated with indicated concentrations of the mediators of inflammation listed for 18 hours in 96-well white plates prior to harvest and analysis.
A second stable NF-κB reporter construct transfectant was created using MonoMac-6 cells. […]

[3] = system: HeLa cells; test: Pro-inflammatory cytokine release from THP-1 after exposure to compound-treated HeLa cells (ELISA); type: cell-based, human; conditions: for TNF-α secretion / immunostimulatory activity: HeLa cells treated with compound, FIG. 1
Procedure: The human cervical epithelium cell line HeLa and the mouse B16-F10 melanoma were purchased from American TCC and maintained in Dulbecco's modified eagle's media [D-MEM (Cellgro®, Herndon Va.)] supplemented with 10% fetal bovine serum (Sigma-Aldrich, St. Louis, Mo.). All cell stress/death-related treatments described below were performed using HeLa cells in initial screens. The human promonocytic leukemia THP-1 (ATCC, Manassas Va.) and pro-macrophage MonoMac6 cells were utilized as the reporter antigen presenting cells utilized in this study. Ziegler-Heitbrock et al., “Establishment of a human cell line (Mono Mac 6) with characteristics of mature monocytes” Int. J. Cancer 41:456-461 (1988). Both lines were maintained in RPMI-1640 media (Cellgro®) supplemented with 10% fetal bovine serum. Unless otherwise noted, all cells were maintained at 37° C. in a humidified incubator supplemented with 5% CO2.
The following list includes the small molecule compounds evaluated in this study: thapsigargin, thapsigargicin (MP Biomedicals, Irvine Calif.), 1,2-bis(o-aminophenoxy)ethane-N,N,N′,N′-tetraacetic Acid Tetra(acetoxymethyl) ester [BAPTA-AM, (EMD Biosciences, San Diego, Calif.)], ethyleneglycol-bis(β-aminoethyl)-N,N,N′,N′-tetraacetoxymethyl ester [EGTA-AM (EMD Biosciences)], 1,2-bis(2-aminophenoxy)ethane-N,N,N′,N′-tetraacetic acid […], tetrandrine, KCl, Amyloid peptide Aβ1-42, 1-Oleoyl-2-acetyl-sn-glycerol (OAG), calcimycin A23187, 2-aminoethyl diphenylborinate (2-APB), histamine, cyclopiazonic acid, 2,5-di-(t-butyl)-1,4-hydroquinone [BHQ (EMD Biosciences)], GdCl3, nicardipine hydrochloride, 1-(o-chloro-α,αdiphenylbenzyl)imidazole (clotrimazole), apamin, charybdotoxin, radicicol, brefeldin A, tunicamycin, tamoxifen, ionomycin, staurosporine, cis-diammineplatinum(II) dichloride (cisplatin), paclitaxel, methotrexate, cycloheximide, and rapamycin. Unless otherwise noted, all compounds were purchased from Sigma-Aldrich. Compounds were dissolved per manufacturer's recommendations prior to addition to HeLa cells in a range of concentrations based on the published literature and incubated between 1 minute to two days. The known mediators of inflammation pam3cys-ser-(lys)4, hydrochloride (Pam3Cys), bacterial flagellin, and lipopolysaccharide were purchased from EMD Biosciences.
Following cell stress/death, resulting cells/cell debris were collected, washed 3 times with excess phosphate-buffered saline, rapidly cycled through freeze/thaw (−80° C. to 25° C.) three times, and quantified by UV spectrophotometry (A280). To determine the presence of pro-inflammatory signals within stressed/dead cells, 40 μg of stressed/dead cell were added to 50,000 THP-1 and incubated for 18 hours. Supernatants were assessed for the presence of pro-inflammatory cytokines including tumor necrosis factor-α (TNF-α), interleukin 8 (IL-8), and IL-12 using commercially available ELISA systems.
A variety of different potential cell stress and cell death inducing agents were screened. […] (See FIG. 1).

[4] = system: Ca(2+)-ATPase from sarcoplasmic and endoplasmic reticula; conditions: activity not further specified; context Ca(2+)-ATPase inhibitory potency; cited from earlier work

Compound | TNF-α secretion / immunostimulatory activity [3] | other results
pam3cys-ser-(lys)4, hydrochloride |  | recognition (NF-κB activity, luciferase) [1]: recognition; recognition (NF-κB activity, luciferase) [2]: recognized
C/C=C(/C)C(=O)O[C@H]1C(C)=C2[C@H]([C@@H]1OC(=O)CCCCC)[C@@](C)(OC(C)=O)C[C@H](OC(=O)CCC)[C@@]1(O)[C@H]2OC(=O)[C@@]1(C)O [Thapsigargicin] |  | secretion of IL-8 from THP-1 ([3]; treated HeLa cells, monocyte cell line THP-1, FIG. 2): activated a dose-dependent secretion of IL-8
CC(=O)O[C@H]1C(=O)[C@@]2(C)[C@H]([C@H](OC(=O)c3ccccc3)[C@]3(O)C[C@H](OC(=O)[C@H](O)[C@@H](NC(=O)c4ccccc4)c4ccccc4)C(C)=C1C3(C)C)[C@]1(OC(C)=O)CO[C@@H]1C[C@@H]2O [Taxol®, paclitaxel] | did not induce immunostimulatory activity | 
C[C@H]1CCC/C=C/[C@@H]2C[C@H](O)C[C@H]2[C@H](O)/C=C/C(=O)O1 [brefledin A, brefeldin A] | did not induce immunostimulatory activity | 
bacterial lipopolysaccharide |  | recognition (NF-κB activity, luciferase) [2]: improved recognition
tunicamycin | did not induce immunostimulatory activity | 
C[C@@H]1C[C@@H]([C@H](O)CC2CC(=O)NC(=O)C2)C(=O)[C@@H](C)C1 [cycloheximide] | did not induce immunostimulatory activity | 
C/C=C(/C)C(=O)O[C@@H]1C[C@H]2[C@@H]([C@H]1C)[C@@H]1OC(=O)[C@@](C)(O)[C@@]1(O)C(OC(=O)[C@@H](C)CC)C[C@]2(C)OC(C)=O (stereo partly shown) [compound 77] |  | activity of synthetic thapsigargin analogue [4]: potent activity
CNc1ccc2oc(C[C@H]3O[C@@]4(CC[C@H]3C)O[C@H]([C@H](C)C(=O)c3ccc[nH]3)[C@H](C)C[C@H]4C)nc2c1C(=O)O [calcimycin, calcimycin A23187] | did not induce immunostimulatory activity | 
